# Test results: patent US8974807B2, “Active agent combinations” (Bayer Cropscience AG, priority 2000, dated 2015)
# Key:
# [1] = test system: whitefly (Trialeurodes vaporariorum); test: Trialeurodes test (Example 1), sprayed red sage infested by all stages of whitefly; type: in vivo; conditions: 100 g/ha, sprayed on Lantana camara at 7-day intervals; evaluation 15 days after the second treatment
# Protocol: (§1) To produce a suitable preparation of active compound, a commercial formulation of active compound or active compound combination is mixed with water until the desired concentration is reached.
# Red sage (Lantana camara) which is heavily infested by all stages of the whitefly (Trialeurodes vaporariorum) is sprayed in intervals of 7 days in each case with a preparation of active compound at the desired application rate.
# Evaluation is carried out 15 days after the second treatment. 100% means that all flies have been killed, whilst 0% means that none of the flies have been killed.
# [2] = test system: whitefly (Trialeurodes vaporariorum); test: Trialeurodes test (Example 2), sprayed red sage infested by whitefly, evaluated at 15, 19 and 25 days; type: in vivo; conditions: 100 g/ha
# Protocol: as §1
# Red sage (Lantana camara) which is heavily infested by the whitefly (Trialeurodes vaporariorum) is sprayed in intervals of 7 days in each case with a preparation of active compound at the desired application rate.
# Evaluation is carried out 15, 19 and 25 days after the second treatment. 100% means that all flies have been […], whilst 0% means that none of the flies have been killed.
smiles,measurement,setting,value
"N#C/N=C1\SCCN1Cc1ccc(Cl)nc1 [(16) thiacloprid, thiacloprid]",Kill rate in %,[1],72.8%
same,Kill rate in % 15 days after the second treatment,[2]; 15 days after the second treatment,72.8%
same,Kill rate in % 19 days after the second treatment,[2]; 19 days after the second treatment,39.5%
same,Kill rate in % 25 days after the second treatment,[2]; 25 days after the second treatment,0%
